As a reminder, the Ki is a dissociation constant, usually derived from enzyme kinetics or from competition with a known ligand. Low readings indicate higher affinity, high ones lower affinity.

Chain of 5-hydroxytryptamine receptor 5B (P35365 whole entry): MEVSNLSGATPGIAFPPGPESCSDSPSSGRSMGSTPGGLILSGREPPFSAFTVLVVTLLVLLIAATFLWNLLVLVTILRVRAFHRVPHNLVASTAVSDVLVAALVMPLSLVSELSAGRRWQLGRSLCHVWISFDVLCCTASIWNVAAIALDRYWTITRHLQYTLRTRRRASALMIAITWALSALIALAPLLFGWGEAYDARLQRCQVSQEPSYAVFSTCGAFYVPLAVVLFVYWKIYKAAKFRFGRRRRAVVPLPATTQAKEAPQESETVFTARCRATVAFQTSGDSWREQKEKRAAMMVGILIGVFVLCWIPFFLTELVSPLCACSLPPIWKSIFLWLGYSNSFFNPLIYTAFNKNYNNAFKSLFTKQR

The assay has as its target 5-hydroxytryptamine receptor 5B (Rattus norvegicus, UniProt P35365).
Take `O=C(c1ccc(F)cc1)C1CCN(CCn2c(=O)[nH]c3ccccc3c2=O)CC1` [3-(2-{4-[(4-fluorophenyl)carbonyl]piperidin-1-yl}ethyl)-1,2,3,4-tetrahydroquinazoline-2,4-dione]: affinity was put at a Ki of 1000 nM. For the compound `O=C(CCCN1CCC2(CC1)C(=O)NCN2c1ccccc1)c1ccc(F)cc1` [8-[4-(4-fluorophenyl)-4-oxidanylidene-butyl]-1-phenyl-1,3,8-triazaspiro[4.5]decan-4-one], affinity was put at a Ki of 1000 nM. Consider `CN1CC(C(=O)N[C@]2(C)O[C@@]3(O)C4CCCN4C(=O)[C@H](Cc4ccccc4)N3C2=O)CC2c3cccc4[nH]cc(c34)CC21` (stereo partly drawn) [7-Methyl-4,6,6a,7,8,9,10,10a-octahydro-indolo[4,3-fg]quinoline-9-carboxylic acid ((2R,5S,10bS)-5-benzyl-10b-hydroxy-2-methyl-3,6-dioxo-octahydro-oxazolo[3,2-a]pyrrolo[2,1-c]pyrazin-2-yl)-amide], for which the Ki worked out at 31 nM. In the case of `CCN(CC)C(=O)[C@@H]1C=C2c3cccc4[nH]cc(c34)C[C@H]2N(C)C1` [(4R,7R)-N,N-diethyl-6-methyl-6,11-diazatetracyclo[7.6.1.0^{2,7}.0^{12,16}]hexadeca-1(16),2,9,12,14-pentaene-4-carboxamide] it was 3.2 nM.

The compound `CCCN(CCC)C1CCc2cccc(O)c2C1` (stereo not given) came in with a Ki of 46 nM. As for `CNS(=O)(=O)Cc1ccc2[nH]cc(CCN(C)C)c2c1` [Sumax], the Ki is 807 nM. In the case of `CN1CCC(=C2c3ccccc3C=Cc3ccccc32)CC1` [5-(1-methylpiperidylidene-4)-5H-dibenzo(a,d)cyclopheptene] it was 117 nM. On to `CC[C@@H](CO)NC(=O)[C@@H]1C=C2c3cccc4c3c(cn4C)C[C@H]2N(C)C1`, for which the Ki stood at 40.7 nM.

Take `CC(C)NCC(O)COc1cccc2[nH]ccc12` (stereo not given) [LB-46]: the affinity, expressed as Ki, was 1000 nM. `NCCc1c[nH]c2ccc(OCC(=O)NCC(=O)N[C@@H](Cc3ccc(O)cc3)C(N)=O)cc12`: the affinity, expressed as Ki, was 582 nM.

The values above are taken from BindingDB's records for doi:10.1016/0014-5793(93)80368-5 (University of Heidelberg Zmbh, 1993).
